Measured values as given in publication PMC5384220 (Nature Communications, 2017).
Entries after “also recorded” stand apart in the source; their conditions may differ. Where a SMILES comes first, the peptide text is derived from it. Bridges are numbered along the chain shown (N, C = ends). Where no end group is shown, it is not given here. [ ]: non-standard residue; d: D form. Lys(Me3) = C[N+](C)(C)CCCC[C@H](N)C(=O)O; Phe(4-F) = N[C@@H](Cc1ccc(F)cc1)C(=O)O; NMeV = CN[C@H](C(=O)O)C(C)C; NMeC = CN[C@@H](CS)C(=O)O

Experiments:
[1] = target: T1, KDM4A (Homo sapiens, UniProt O75164); experiment: AlphaScreen demethylase activity assay, KDM4A; type: biochemical; conditions: for IC50: KDM4A 1-359
T1 construct: KDM4A 1-359 E.coli; Hexa-His (N); made in house; host or cells: E. coli
T1 sequence (O75164 1-359): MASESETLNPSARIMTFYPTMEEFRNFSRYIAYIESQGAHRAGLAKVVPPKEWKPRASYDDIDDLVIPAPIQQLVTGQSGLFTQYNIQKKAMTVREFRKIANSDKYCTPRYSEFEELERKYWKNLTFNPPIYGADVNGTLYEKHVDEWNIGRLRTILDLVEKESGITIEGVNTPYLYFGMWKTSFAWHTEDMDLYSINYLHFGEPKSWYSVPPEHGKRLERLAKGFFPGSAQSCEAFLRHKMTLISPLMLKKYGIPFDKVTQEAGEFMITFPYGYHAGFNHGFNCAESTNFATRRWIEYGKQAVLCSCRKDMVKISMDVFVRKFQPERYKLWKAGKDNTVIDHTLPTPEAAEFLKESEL
Procedure: IC50 values for KDM2–6 were measured using an AlphaScreen assay as described. The appropriate KDM (5 μl) was pre-incubated with an inhibitor (0.1 μl in DMSO) or DMSO for 15 min before the addition of 5 μl mixture of biotinylated peptide substrates, 2OG, ferrous ammonium sulfate (1–10 μM final) and ascorbate (100 μM final) to initiate the demethylation reaction. The reaction was quenched with 5 μl of 30 mM EDTA at predetermined reaction times for each enzyme (initial rate). Demethylated product was detected by addition of 5 μl of AlphaScreen donor and acceptor beads (AlphaScreen General IgG Detection Kit, 0.02 mg ml^−1 final each) pre-incubated with antibody. The plates were read after 1 h incubation in a BMG Labtech Pherastar FS plate reader. Data were normalized to a no enzyme control and IC50 values were calculated using nonlinear regression curve fits using GraphPad Prism. Assay buffer (50 mM HEPES pH 7.5, BSA (0.1% w/v) and Tween-20 (0.01% v/v)) was used throughout, except for dilution of stock ferrous ammonium sulfate solutions where water was used. The enzyme, substrate and antibody concentrations used are described in Supplementary Table 3. A fluorescence-based LSD1 inhibitor screening assay kit (Cayman, 700120) was used for KDM1/LSD1 assay. Assays for prolyl hydroxylase domain 2 and factor inhibiting HIF using matrix-assisted laser desorption/ionization–time of flight MS were performed as previously described. Prism 5.0 (GraphPad) was used to generate and to fit dose–response curves. IC50 values were determined by plotting percentage inhibition versus compound concentration relative to positive (vehicle) and negative (no enzyme) controls, using normalized dose–response (variable slope) fit. The reported values are the mean of multiple experiments (n≥3). The formaldehyde dehydrogenase coupled KDM assay was used to determine the mode of inhibition, using 0.5 μM His-KDM4A1–359. Prism 5.0 (GraphPad) was used to fit in mix-mode inhibition, to determine the kinetic parameters. Binding constants for CPs and H3(1–15)K9me3 were measured using biolayer interferometry (OctetRed 384, ForteBio) in buffer (50 mM HEPES (pH 7.5), 150 mM NaCl, 10 μM ammonium iron(II) sulphate). His-KDM4A1–359-Bio (70 nM) was immobilized onto super streptavidin biosensor and subjected to different peptide concentrations in buffer. Data analysis was performed using ForteBio Data Aalysis (v6.4).
Construct Expression [E] / nM [2OG] / µM [Fe(II)] / µM Peptide / nM Peptide sequence Antibody Source […]
Supplementary Table 3. AlphaScreen assay parameters for 2OG oxygenases used for this study. The table was dapted from 10. Assays were performed at 2OG concentration near the 2OG Km values determined experimentally.11 All enzymes were expressed and purified as described.10-12

[2] = target: T2, KDM4C (Homo sapiens, UniProt Q9H3R0); experiment: AlphaScreen demethylase activity assay, KDM4C; type: biochemical
T2 construct: KDM4C 1-366 E.coli; made in house; host or cells: E. coli
T2 sequence (Q9H3R0 1-366): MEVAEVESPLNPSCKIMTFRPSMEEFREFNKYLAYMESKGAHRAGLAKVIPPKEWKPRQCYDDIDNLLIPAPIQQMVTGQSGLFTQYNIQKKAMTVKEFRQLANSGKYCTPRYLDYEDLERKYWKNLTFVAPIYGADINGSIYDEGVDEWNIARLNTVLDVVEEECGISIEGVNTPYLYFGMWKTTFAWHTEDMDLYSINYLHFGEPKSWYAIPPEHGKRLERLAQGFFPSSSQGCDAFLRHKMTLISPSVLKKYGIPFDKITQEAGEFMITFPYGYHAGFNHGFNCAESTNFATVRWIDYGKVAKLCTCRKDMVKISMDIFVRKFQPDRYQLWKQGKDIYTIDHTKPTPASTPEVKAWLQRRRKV
Procedure: IC50 values for KDM2–6 were measured using an AlphaScreen assay as described. The appropriate KDM (5 μl) was pre-incubated with an inhibitor (0.1 μl in DMSO) or DMSO for 15 min before the addition of 5 μl mixture of biotinylated peptide substrates, 2OG, ferrous ammonium sulfate (1–10 μM final) and ascorbate (100 μM final) to initiate the demethylation reaction. The reaction was quenched with 5 μl of 30 mM EDTA at predetermined reaction times for each enzyme (initial rate). Demethylated product was detected by addition of 5 μl of AlphaScreen donor and acceptor beads (AlphaScreen General IgG Detection Kit, 0.02 mg ml^−1 final each) pre-incubated with antibody. The plates were read after 1 h incubation in a BMG Labtech Pherastar FS plate reader. Data were normalized to a no enzyme control and IC50 values were calculated using nonlinear regression curve fits using GraphPad Prism. […] A fluorescence-based LSD1 inhibitor screening assay kit (Cayman, 700120) was used for KDM1/LSD1 assay. […] IC50 values were determined by plotting percentage inhibition versus compound concentration relative to positive (vehicle) and negative (no enzyme) controls, using normalized dose–response (variable slope) fit. […] Binding constants for CPs and H3(1–15)K9me3 were measured using biolayer interferometry (OctetRed 384, ForteBio) in buffer (50 mM HEPES (pH 7.5), 150 mM NaCl, 10 μM ammonium iron(II) sulphate). […]

[3] = system: KDM4A; design: method as in earlier work; conditions: ref 4 (King et al., supplementary references); read-out: EC50 KDM4A inhibition in cells; cited from earlier work
[4] = system: H3K9me3/H3K36me3 in HeLa cells; experiment: Immunofluorescence of global histone methylation, 72 h dosing; type: cell-based; conditions: 72 h treatment
Description: Supplementary Figure 12. Immunofluorescence analysis of global histone methylation levels after 72hr dosing of cyclic peptides in HeLa cells. (a)-(c) Immunofluorescence analysis of HeLa cells dosed with cyclic peptides for 72 hrs. Maximum intensity projected images of 3D confocal z-stacks showing nuclei stained with […]
DMSO and CP2 treated cells. Bar represents 50µm. Global H3K9me3 (d) and associated nuclei count for the […]
staining, (h) global H3K4me3 and (i) global H3K27me3 staining. An increase in fluorescence intensity, […]
over certain concentration ranges. Average +/- s.e.m (n > 100 cells) are shown except at concentrations of […]
A generic 2OG oxygenase inhibitor 5-carboxy-8-
Immunofluorescence (IF) assay […]
with 0.5% FBS and 1% Pen-Strep. […]
grade plate (Becton Dickinson) and left overnight to adhere. Cells were dosed with cyclic […]
After 30min blocking (3% FBS in […]
three times after each incubation. […]
Image acquisition and analysis […]
image immunostained cells in a 96-well plate configuration. For each well, the system […]
The average intensity for each […]
analysed using GraphPad Prism 5. […]

[5] = system: FLAG-KDM4A in HeLa cells; experiment: Immunofluorescence of H3K9me3 in HeLa cells overexpressing FLAG-KDM4A, 24 h dosing
[6] = target: T3, KDM4A1-359 (Homo sapiens, UniProt O75164); experiment: MALDI-TOF MS demethylation of CP2 variants as substrates; type: biochemical; conditions: KDM4A 2 μM, peptide 10 μM, 2OG 100 μM, 2 h 37 °C
T3 construct: Hexa-His (N); made in house
T3 sequence (O75164 1-359): T1 sequence (O75164 1-359)
Procedure: Figure 3 KDM4A can demethylate methylated lysine and arginine containing non-histone sequences. […] The reaction product was analysed using matrix-assisted laser desorption/ionization–time of flight MS. Reactions containing enzymes are in red, no enzyme peptide controls are in black.

[7] = target: T4, His-KDM4A1-359-Bio (Homo sapiens, UniProt O75164); experiment: Biolayer interferometry binding to KDM4A
T4 construct: KDM4A protein (residues 1-359) was cloned into the pNIC-Bio3 plasmid, which incorporates a C-terminal AviTag; made in house; host or cells: E. coli BL21(DE3)Rosetta co-transfected with pCDF-BirA
T4 sequence (O75164 1-359): T1 sequence (O75164 1-359)

CC[C@H](C)[C@@H]1NC(=O)CNC(=O)[C@H](CC(C)C)NC(=O)[C@H](Cc2c[nH]c3ccccc23)NC(=O)[C@H](Cc2ccc(O)cc2)NC(=O)[C@@H](Cc2ccc(O)cc2)NC(=O)CSC[C@@H](C(N)=O)NC(=O)[C@H](Cc2ccc(O)cc2)NC(=O)[C@H](CO)NC(=O)[C@H](CCCNC(=N)N)NC(=O)[C@@H]2CCCN2C(=O)[C@H]([C@@H](C)O)NC1=O [CP1] ({CH2CO}-[dY]YWLGITPRSYC-NH2; thioether N-12)
IC50 ([1]; AlphaScreen): > 100 µM

CC(C)[C@H]1C(=O)N[C@@H](Cc2ccc(O)cc2)C(=O)N[C@@H](CC(N)=O)C(=O)N[C@@H]([C@@H](C)O)C(=O)N[C@@H](C)C(=O)N[C@@H](CO)C(=O)N[C@H](C)C(=O)N[C@@H](Cc2c[nH]c3ccccc23)C(=O)N[C@@H](CCCNC(=N)N)C(=O)N[C@@H](Cc2c[nH]c3ccccc23)C(=O)N[C@@H](Cc2ccc(F)cc2)C(=O)N2CCC[C@H]2C(=O)N(C)[C@H](C(N)=O)CSCC(=O)N[C@H](Cc2ccc(O)cc2)C(=O)N1C [CP2.3(R6A)] ({CH2CO}-[dY][NMeV]YNTAS[dA]WRW[Phe(4-F)]P[NMeC]-NH2; thioether N-14)
IC50 [2]: > 10 µM

CC[C@H](C)[C@@H]1NC(=O)[C@H](C)NC(=O)[C@@H]2CCCN2C(=O)[C@H]([C@@H](C)O)NC(=O)[C@H](Cc2ccc(O)cc2)NC(=O)[C@H](Cc2ccccc2)NC(=O)[C@H](Cc2c[nH]c3ccccc23)NC(=O)[C@H](Cc2ccc(O)cc2)NC(=O)CSC[C@@H](C(N)=O)NC(=O)[C@H](Cc2c[nH]c3ccccc23)NC(=O)[C@H](CCCNC(=N)N)NC1=O [CP3] ({CH2CO}-YWFYTPAIRWC-NH2; thioether N-11)
IC50 ([1]; AlphaScreen): > 100 µM
IC50 [2]: > 100 µM

DY(meV)YNTRSDAWRW(4FF)P(meC) [CP2.3]
Inhibitor range with increases in nuclear H3K9me3/H3K36me3 staining [4]: 10 to 20 µM

DY(meV)YNTRSDAWRWY(meT)(meC) [CP2.2]
Inhibitor range with increases in nuclear H3K9me3/H3K36me3 staining [4]: 10 to 20 µM

DYVYNTRSDAWRWYT(meC) [CP2.1]
Inhibitor range with increases in nuclear H3K9me3/H3K36me3 staining [4]: 10 to 20 µM

DYVYNTRSGWRWYTC [Linear CP2]
KDM4A IC50 relative to CP2 ([1]; AlphaScreen): four fold higher

DYVYNTRSGWRWYTC-BRRRRRRRRR [CP2(polyR)]
H3K9me3 levels in cells overexpressing FLAG-KDM4A (cellular KDM4A demethylase activity) [5]: Loss of H3K9me3 staining; also recorded: no inhibition of cellular KDM4A demethylase activity

DYVYNT[Lys(Me3)]SGWRWYTC [R6Kme3]
Demethylation of the peptide by KDM4A (substrate) [6]: efficiently demethylated
Demethylation of the peptide by KDM4A (substrate) ([6]; listed as CP2(R6Kme3)): substrates of KDM4A

LYLKSRRSGLTWIPC [CP4]
Intra-subfamily selectivity KDM4A-C over KDM4D-E ([1]; ratio of IC50 values): > 100 fold
Selectivity by IC50 for KDM4 over other JmjC-demethylase families, PHD2, FIH and KDM1A ([1]; ratio of IC50 values): > 160 fold
KDM4A Binding kdiss [7]: 0.000784 s⁻¹
KDM4A Binding kon [7]: 21800 M⁻¹ s⁻¹

LYSKYTQSGVRWVC [CP5]
Selectivity by IC50 for KDM4 over other JmjC-demethylase families, PHD2, FIH and KDM1A ([1]; ratio of IC50 values): > 160 fold
KDM4A Binding kdiss [7]: 0.0107 s⁻¹
KDM4A Binding kon [7]: 62000 M⁻¹ s⁻¹

LYVYNT(Rme2a)SGWRWYTC (not fully specified (N-terminus, bridges)) [CP2(R6me2a)]
Demethylation of the peptide by KDM4A (substrate) [6]: demethylate; also recorded: substrates of KDM4A
